Results published in US20240277603A1, “COSMETIC USE OF AN OILY EXTRACT FROM DISTILLATION RESIDUE OF IMMORTELLE AS A SKIN BRIGHTENING AGENT” (LABORATOIRES M&L, priority 2021, published 2024).

Legend:
[1] = test system: mouse B16 melanocytes; test: Inhibition of melanin production by NDP-MSH-stimulated B16 melanocytes (melanin assay, absorbance at 405 nm); type: cell-based; details: for inhibition of pigmentation (melanin production): Example 3, FIG. 3, B16 + NDP-MSH, extract 0.035%, hexylresorcinol 5 μg/mL, alone or combined, kojic acid and vitamin C positive controls; for efficacy as positive control for pigmentation inhibition (melanin production): Example 2, FIGS. 1 and 2, B16 + 0.1 μM NDP-MSH, 72 h, kojic acid 3 mM, vitamin C (ascorbyl glucoside) 0.5%, ***p<0.001, ****p<0.0001
Procedure: All the conditions were tested in triplicate.
For the melanin assay, the medium in each well was aspirated and the cells lyzed by adding 50 μl of 1M NaOH to the cell lawn. The plates were shaken for 30 minutes at room temperature, and the lyzate was then transferred to glass flasks and incubated overnight at 95° C. After incubation, the lyzates were centrifuged at 2000 rpm to remove the cell debris. The absorbance of the supernatant was read at 405 nm, reflecting the amount of melanin in each well, and the average of the three replicates was determined for each condition. A well of cells not treated with NDP-MSH was used as a control, and its OD value subtracted from all the OD values of the other wells. The percentage of melanin inhibition was then calculated according to the formula:
100−((melanin amount in test condition/melanin amount in untreated control)×100)
The significance of the results was evaluated using a one-way Anova test (for the distillation residue extract and the oily extract of flowering tops) or Student's t test (for kojic acid and vitamin C).
The results were compared with the effect obtained with the extract according to the invention alone and hexylresorcinol alone, used at the same doses.

[2] = test system: mouse B16 melanocytes; details: Example 3, preliminary cytotoxicity study on the cells
Procedure: Melanocytes (mouse line B16) were seeded in 96-well plates at 2000 cells per well in phenol red-free DMEM medium containing 10% fetal calf serum, 2 mM glutamine, 1 mM sodium pyruvate and 100 μg/ml normocin. The following day, the cells were treated with 0.1 μM of NDP-MSH to induce pigmentation. Under the test conditions, in the presence of NDP-MSH, kojic acid at 3 mM and vitamin C (ascorbyl glucoside) at 0.5% were used as positive controls for pigmentation inhibition, and the extracts to be evaluated were tested at several concentrations. All the conditions were tested in triplicate. The cells were incubated at 37° C., 5% CO2 for 72 h in the presence of the extracts and positive controls.

Structure (SMILES)	inhibition of pigmentation (melanin production) [1]	maximum non-cytotoxic dose [2] [µg/mL]	efficacy as positive control for pigmentation inhibition (melanin production) [1]
CCCCCCc1ccc(O)cc1O [hexylresorcinol, 4-hexyl-1,3-phenylenediol]	confirms the depigmenting efficacy	10	–
O=c1cc(CO)occ1O [kojic acid]	demonstrating the efficacy	–	demonstrating the efficacy
O=C1O[C@H]([C@@H](O)CO)C(O)=C1O[C@H]1O[C@H](CO)[C@@H](O)[C@H](O)[C@H]1O [vitamin C, ascorbyl glucoside]	demonstrating the efficacy	–	demonstrating the efficacy
